Data as given in patent US11739100B2, “2,3-dihydro-1h-imidazo{1,2-a}pyrimidin-5-one and this 1,2,3,4-tetrahydropyrimido{1,2-a}pyrimidin-6-one derivatives comprising a substituted morpholine, preparation thereof and pharmaceutical use thereof” (SANOFI, priority 2012, dated 2023).

Target: T1, recombinant Vps34 (Homo sapiens, UniProt Q8NEB9)
T1 construct: purchased Invitrogen PV5126
Assay: Phosphorylation of phosphatidylinositol (PI) by Vps34 in vitro, ADP detected by TR-FRET (HTRF Transcreener ADP)
Type: biochemical
Conditions: 10 μM ATP, 55 μg/ml PI, approximately 3 nM Vps34, 1 hour at ambient temperature; absolute IC50, mean of two independent experiments; read-out: IC50 activity range

T1 sequence (Q8NEB9 whole entry): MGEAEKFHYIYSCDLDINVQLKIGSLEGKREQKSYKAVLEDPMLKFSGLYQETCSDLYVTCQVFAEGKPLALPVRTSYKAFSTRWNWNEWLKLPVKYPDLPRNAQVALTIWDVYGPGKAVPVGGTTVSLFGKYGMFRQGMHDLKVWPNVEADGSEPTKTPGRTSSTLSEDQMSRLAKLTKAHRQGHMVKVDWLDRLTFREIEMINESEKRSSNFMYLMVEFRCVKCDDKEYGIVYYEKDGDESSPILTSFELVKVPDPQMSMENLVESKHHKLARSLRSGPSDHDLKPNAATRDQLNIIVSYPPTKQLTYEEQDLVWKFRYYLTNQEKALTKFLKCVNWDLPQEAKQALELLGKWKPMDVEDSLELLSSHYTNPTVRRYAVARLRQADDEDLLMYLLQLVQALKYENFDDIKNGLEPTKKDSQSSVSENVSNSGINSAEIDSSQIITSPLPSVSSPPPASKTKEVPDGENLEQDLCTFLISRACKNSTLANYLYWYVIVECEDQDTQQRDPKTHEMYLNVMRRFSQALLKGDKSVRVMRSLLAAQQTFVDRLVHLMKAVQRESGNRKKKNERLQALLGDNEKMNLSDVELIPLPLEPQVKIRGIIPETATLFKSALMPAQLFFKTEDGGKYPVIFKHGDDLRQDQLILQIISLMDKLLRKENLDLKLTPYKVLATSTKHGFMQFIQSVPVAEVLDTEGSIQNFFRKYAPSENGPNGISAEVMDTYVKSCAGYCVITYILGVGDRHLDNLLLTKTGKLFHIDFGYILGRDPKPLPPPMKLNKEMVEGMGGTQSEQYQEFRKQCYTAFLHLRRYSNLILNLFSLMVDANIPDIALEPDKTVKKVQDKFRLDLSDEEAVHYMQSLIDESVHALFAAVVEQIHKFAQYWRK

Row | SMILES | IC50 [nM]
1 | C[C@@H]1COC[C@@H](C)N1c1cc(=O)n2c(n1)N(c1cccnc1)[C@H](C(F)(F)F)CC2 [Example 160, (S)-2-((3R,5R)-3,5-Dimethylmorpholin-4-yl)-9-pyridin-3-yl-8-trifluoromethyl-6,7,8,9-tetrahydro-pyrimido[1,2-a]-pyrimidin-4-one] | < 10
2 | Cc1cc(C(=O)CN2c3nc(N4CCOC[C@H]4C)cc(=O)n3CC[C@H]2C(F)(F)F)no1 [Example 311, (S)-9-[2-(5-Methyl-isoxazol-3-yl)-2-oxo-ethyl]-2-((R)-3-methyl-morpholin-4-yl)-8-trifluoromethyl-6,7,8,9-tetrahydro-pyrimido[1,2-a]-pyrimidin-4-one] | < 10
3 | C[C@@H]1COCCN1c1cc(=O)n2c(n1)N(CC(=O)N1CCCO1)[C@H](C(F)(F)F)CC2 [Example 319, (S)-9-(2-Isoxazolidin-2-yl-2-oxoethyl)-2-((R)-3-methyl-morpholin-4-yl)-8-trifluoromethyl-6,7,8,9-tetrahydropyrimido-[1,2-a]pyrimidin-4-one] | < 10
4 | C[C@@H]1COCCN1c1cc(=O)n2c(n1)N(CC(=O)c1ccc(F)cn1)[C@H](C(F)(F)F)CC2 [Example 70, (S)-9-[2-(5-Fluoro-pyridin-2-yl)-2-oxo-ethyl]-2-((R)-3-methyl-morpholin-4-yl)-8-trifluoromethyl-6,7,8,9-tetrahydro-pyrimido[1,2-a]-pyrimidin-4-one] | < 10
5 | Cc1nnc(CN2c3nc(N4CCOC[C@H]4C)cc(=O)n3CC[C@H]2C(F)(F)F)o1 [Example 96, (S)-2-((R)-3-Methyl-morpholin-4-yl)-9-(5-methyl-[1,3,4]oxadiazol-2-yl-methyl)-8-trifluoromethyl-6,7,8,9-tetrahydro-pyrimido[1,2-a]-pyrimidin-4-one] | < 10
6 | Cc1nc(CN2CC[C@H](C(F)(F)F)n3c2nc(N2CCOC[C@H]2C)c(F)c3=O)no1 [Example 21, (R)-3-Fluoro-2-((R)-3-methylmorpholin-4-yl)-9-(5-methyl-[1,2,4]oxadiazol-3-yl-methyl)-6-trifluoromethyl-6,7,8,9-tetrahydro-pyrimido[1,2-a]-pyrimidin-4-one] | < 10
7 | C[C@@H]1COCCN1c1cc(=O)n2c(n1)N(CC(=O)C1CC1)CC[C@@H]2C(F)(F)F [Example 118, (R)-9-(2-Cyclopropyl-2-oxoethyl)-2-((R)-3-methylmorpholin-4-yl)-6-trifluoromethyl-6,7,8,9-tetrahydro-pyrimido[1,2-a]-pyrimidin-4-one] | < 10
8 | C[C@@H]1COCCN1c1nc2n(c(=O)c1F)CC[C@@H](C(F)(F)F)N2Cc1noc(C(C)(C)C)n1 [Example 54, (S)-9-(5-tert-Butyl-[1,2,4]oxadiazol-3-yl-methyl)-3-fluoro-2-((R)-3-methyl-morpholin-4-yl)-8-trifluoromethyl-6,7,8,9-tetrahydro-pyrimido[1,2-a]-pyrimidin-4-one] | < 10
9 | CONC(=O)CN1c2nc(N3CCOC[C@H]3C)cc(=O)n2CC[C@H]1C(F)(F)F [Example 197, N-Methoxy-2-[(S)-8-((R)-3-methyl-morpholin-4-yl)-6-oxo-2-trifluoromethyl-3,4-dihydro-2H,6H-pyrimido[1,2-a]-pyrimidin-1-yl]-acetamide] | 10 to 100
10 | C[C@@H]1COCCN1c1cc(=O)n2c(n1)N(CC(=O)C1(C)CCCC1)[C@H](C(F)(F)F)CC2 [Example 253, (S)-9-[2-(1-Methyl-cyclopentyl)-2-oxo-ethyl]-2-((R)-3-methyl-morpholin-4-yl)-8-trifluoromethyl-6,7,8,9-tetrahydro-pyrimido[1,2-a]-pyrimidin-4-one] | < 10
11 | Cc1nc(CN2c3nc(N4CCOC[C@H]4C)c(F)c(=O)n3CC[C@H]2C(F)(F)F)no1 [Example 15, (S)-3-Fluoro-2-((R)-3-methylmorpholin-4-yl)-9-(5-methyl-[1,2,4]oxadiazol-3-yl-methyl)-8-trifluoromethyl-6,7,8,9-tetrahydro-pyrimido[1,2-a]-pyrimidin-4-one] | < 10
12 | C[C@@H]1COCCN1c1cc(=O)n2c(n1)N(C/C(=N\O)C1CC1)[C@H](C(F)(F)F)CC2 (single isomer, unassigned) [Example 304] | < 10
13 | C[C@@H]1COCCN1c1cc(=O)n2c(n1)N(Cc1ccon1)C(C)(C)CC2 [Example 298, 9-Isoxazol-3-ylmethyl-8,8-dimethyl-2-((R)-3-methylmorpholin-4-yl)-6,7,8,9-tetrahydro-pyrimido[1,2-a]-pyrimidin-4-one] | 10 to 100
14 | C[C@@H]1COCCN1c1cc(=O)n2c(n1)N(CC(=O)Cc1ccccn1)[C@H](C(F)(F)F)CC2 [Example 67, (S)-2-((R)-3-Methyl-morpholin-4-yl)-9-(2-oxo-3-pyridin-2-yl-propyl)-8-trifluoromethyl-6,7,8,9-tetrahydro-pyrimido[1,2-a]-pyrimidin-4-one] | < 10
15 | C[C@@H]1COCCN1c1cc(=O)n2c(n1)N(CC(=O)c1ccccn1)CC[C@@H]2C(F)(F)F [Example 102, (R)-2-((R)-3-Methyl-morpholin-4-yl)-9-(2-oxo-2-pyridin-2-yl-ethyl)-6-trifluoromethyl-6,7,8,9-tetrahydro-pyrimido[1,2-a]-pyrimidin-4-one] | < 10
16 | C[C@@H]1COCCN1c1cc(=O)n2c(n1)N(CCc1ccccn1)[C@H](C(F)(F)F)CC2 [Example 220, (S)-2-((R)-3-Methyl-morpholin-4-yl)-9-(2-pyridin-2-ylethyl)-8-trifluoromethyl-6,7,8,9-tetrahydro-pyrimido[1,2-a]-pyrimidin-4-one] | < 10
17 | C[C@@H]1COCCN1c1cc(=O)n2c(n1)N(CC(=O)Nc1ccccc1)[C@H](C(F)(F)F)CC2 [Example 236, 2-[(S)-8-((R)-3-Methyl-morpholin-4-yl)-6-oxo-2-trifluoromethyl-3,4-dihydro-2H,6H-pyrimido[1,2-a]-pyrimidin-1-yl]-N-phenyl-acetamide] | 10 to 100
18 | C[C@@H]1COCCN1c1cc(=O)n2c(n1)N(CC(C)(C)O)[C@H](C(F)(F)F)CC2 [Example 84, (S)-9-(2-Hydroxy-2-methylpropyl)-2-((R)-3-methylmorpholin-4-yl)-8-trifluoromethyl-6,7,8,9-tetrahydro-pyrimido[1,2-a]-pyrimidin-4-one] | < 10
19 | CC(C)C(=O)CN1c2nc(N3CC4CCC(C3)O4)cc(=O)n2CC[C@H]1C(F)(F)F [Example 272, (S)-9-(3-Methyl-2-oxo-butyl)-2-(8-oxa-3-aza-bicyclo[3.2.1]oct-3-yl)-8-trifluoromethyl-6,7,8,9-tetrahydro-pyrimido[1,2-a]-pyrimidin-4-one] | > 100
20 | C[C@@H]1COCCN1c1cc(=O)n2c(n1)N(Cc1ccncc1Cl)[C@H](C(F)(F)F)CC2 [Example 66, (S)-9-(3-Chloro-pyridin-4-ylmethyl)-2-((R)-3-methyl-mopholin-4-yl)-8-trifluoromethyl-6,7,8,9-tetrahydro-pyrimido[1,2-a]-pyrimidin-4-one] | < 10
21 | CC(C)C(=O)CN1CC[C@H](C(F)(F)F)n2c1nc(N1CCOC[C@H]1C)c(F)c2=O [Example 128, (R)-3-Fluoro-2-((R)-3-methylmorpholin-4-yl)-9-(3-methyl-2-oxo-butyl)-6-trifluoromethyl-6,7,8,9-tetrahydro-pyrimido[1,2-a]-pyrimidin-4-one] | < 10
22 | C[C@@H]1COCCN1c1cc(=O)n2c(n1)N(c1cccnc1)[C@H](C(F)(F)F)CC2 [Example 301, (S)-2-((R)-3-Methyl-morpholin-4-yl)-9-pyridin-3-yl-8-trifluoromethyl-6,7,8,9-tetrahydro-pyrimido[1,2-a]-pyrimidin-4-one] | < 10
23 | C[C@@H]1COCCN1c1cc(=O)n2c(n1)N(Cc1nc(C3CC3)no1)[C@H](C(F)(F)F)CC2 [Example 227, (S)-9-(3-Cyclopropyl-[1,2,4]oxadiazol-5-yl-methyl)-2-((R)-3-methylmorpholin-4-yl)-8-trifluoromethyl-6,7,8,9-tetrahydro-pyrimido[1,2-a]-pyrimidin-4-one] | < 10
24 | O=c1cc(N2CC3CCC(C2)O3)nc2n1CC[C@@H](C(F)(F)F)N2c1cc(F)cc(F)c1 [Example 161, (S)-9-(3,5-Difluoro-phenyl)-2-(8-oxa-3-azabicyclo[3.2.1]oct-3-yl)-8-trifluoromethyl-6,7,8,9-tetrahydro-pyrimido[1,2-a]-pyrimidin-4-one] | 10 to 100
25 | C[C@@H]1COCCN1c1nc2n(c(=O)c1F)CC[C@@H](C(F)(F)F)N2Cc1nc(C2CC2)no1 [Example 249, (S)-9-(3-Cyclopropyl-[1,2,4]oxadiazol-5-yl-methyl)-3-fluoro-2-((R)-3-methyl-morpholin-4-yl)-8-trifluoromethyl-6,7,8,9-tetrahydro-pyrimido[1,2-a]-pyrimidin-4-one] | < 10
26 | C[C@@H]1COCCN1c1nc2n(c(=O)c1F)CC[C@@H](C(F)(F)F)N2Cc1nc(C(F)(F)F)no1 [Example 251, (S)-3-Fluoro-2-((R)-3-methylmorpholin-4-yl)-8-trifluoromethyl-9-(3-trifluoromethyl-[1,2,4]oxadiazol-5-yl-methyl)-6,7,8,9-tetrahydro-pyrimido[1,2-a]-pyrimidin-4-one] | < 10
27 | C[C@H]1COCCN1c1nc2n(c(=O)c1F)CC[C@@H](C(F)(F)F)N2CC(=O)C1CC1 [Example 321, (S)-9-(2-Cyclopropyl-2-oxoethyl)-3-fluoro-2-((S)-3-methyl-morpholin-4-yl)-8-trifluoromethyl-6,7,8,9-tetrahydropyrimido-[1,2-a]pyrimidin-4-one] | 10 to 100
28 | CC(=O)CN1CC[C@H](C(F)(F)F)n2c1nc(N1CCOC[C@H]1C)c(F)c2=O [Example 148, (R)-3-Fluoro-2-((R)-3-methylmorpholin-4-yl)-9-(2-oxopropyl)-6-trifluoromethyl-6,7,8,9-tetrahydro-pyrimido[1,2-a]-pyrimidin-4-one] | 10 to 100
29 | C[C@@H]1COCCN1c1nc2n(c(=O)c1F)CC[C@@H](C(F)(F)F)N2CC(=O)C(C)(C)C [Example 97, (S)-9-(3,3-Dimethyl-2-oxobutyl)-3-fluoro-2-((R)-3-methyl-morpholin-4-yl)-8-trifluoromethyl-6,7,8,9-tetrahydro-pyrimido[1,2-a]-pyrimidin-4-one] | < 10
